Experimental data reported in PMC10743537 (2023).

System: nicked decamer duplex 3 (DNA, duplex, PEG(6) tether between positions 5 and 6 (C10/G11 in paper numbering) and between positions 15 and 16 (C20/G1); nick between T5 (3' end, position 20) and G6 (5' end, position 1)) GTCGCGCGACAACGCGCGTT
Assay: NMR diffusion (DOSY)
Conditions: 25 mM NaCl, 25 mM K3PO4; D2O buffer, pH 6.0, 10 °C; 0.60 mM each; 1:1 model assumed, self-association neglected

Row | Ka | Structure (SMILES)
1 | 76 mM⁻¹ | CCc1c2c(nc3ccc(O)cc13)-c1cc3c(c(=O)n1[C@H]2CN1CCCC1)COC(=O)[C@]3(O)CC
2 | 150 mM⁻¹ | CCc1c2c(nc3ccc(O)cc13)-c1cc3c(c(=O)n1[C@@H]2CN1CCCC1)COC(=O)[C@]3(O)CC
